Activity calls are given as the source filed them.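 The calls were made as follows: active = KLF5 protein level shifted at least 30% from solvent-only control, either down or up; inactive = shift under 30% either way.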
Target: Krueppel-like factor 5 (Homo sapiens) (UniProt Q13887)
Experiment: KLF5 protein abundance shift by immunoblot – western blot, chemiluminescence, HT29 colorectal cells, counter-screen for KLF5 inhibitor project, late-stage follow-up (AID 588660)
Conditions: 24 h, at 10 µM, stronger effect = higher value

Krueppel-like factor 5 (Homo sapiens), sequence (Q13887 whole entry, looked up): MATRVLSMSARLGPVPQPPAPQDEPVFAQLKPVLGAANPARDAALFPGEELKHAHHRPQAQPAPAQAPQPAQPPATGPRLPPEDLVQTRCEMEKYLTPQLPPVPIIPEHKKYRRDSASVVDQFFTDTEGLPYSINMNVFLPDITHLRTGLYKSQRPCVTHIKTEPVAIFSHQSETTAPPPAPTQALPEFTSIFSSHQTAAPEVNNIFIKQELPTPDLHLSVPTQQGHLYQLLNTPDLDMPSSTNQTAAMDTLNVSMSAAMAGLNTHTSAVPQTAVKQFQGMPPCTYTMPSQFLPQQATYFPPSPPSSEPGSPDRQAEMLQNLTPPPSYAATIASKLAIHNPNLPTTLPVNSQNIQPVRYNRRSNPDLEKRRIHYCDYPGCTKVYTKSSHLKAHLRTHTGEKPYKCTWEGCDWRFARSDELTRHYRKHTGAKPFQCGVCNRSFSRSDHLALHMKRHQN

How did the inhibition turn out when `CN(C(=O)COC(=O)/C=C/c1cccc([N+](=O)[O-])c1)C1CCS(=O)(=O)C1` (stereo unspecified) was run?
The inhibition was 12.8% (inactive).
